Measured values reported in patent US5028614A, “Hydroxymethyl-indolizidines and quinolizidines and their use as α-glucosidase I inhibitors” (Merrell Dow Pharmaceuticals Inc., priority 1990, dated 1991).
Structures can show the parent of a compound that is named as a salt.

molecular target: α-glucosidase I; experiment: Microtiter plate assay for α-glucosidase I activity; format: biochemical; settings: [3H]G3M9N substrate, purified α-glucosidase I, pH 6.8, 37° C., one hour
Procedure: The [^3 H] glucose labeled oligosaccharides substrate (G3 M9 N) for glucosidase I was prepared by metabolically labeling exponentially growing BHK cells with [^3 H]galactose in the presence of 200μg/ml of castanospermine. BHK cells grown as monolayer were treated with 200μg/ml of castanospermine in DMEM (#430-1600) supplemented with 10% heat inactivated fetal calf serum, 2 mM L-glutamine and 1X of PSN antibiotic mixture. After three hour incubation with castanospermine, [1-^3 H] galactose (10μci/ml of media) was added to label the glycoproteins and cells were allowed to grow to confluency for an additional 48 hours. At the end of labeling period, the cells were washed with cold PBS and scraped with a rubber policeman. Cell pellet was heated for 10 minutes at 100° C. and exhaustively treated with pronase (usually 72 hrs) in 50 mM Tris pH 7.5 containing 10 mM CaCl2 and 1% Pronase under toluene atmosphere to obtain glycopeptides. The glycopeptides were separated on columns of Bio-gel P-4. The glycopeptides peak produced by castanospermine treatment was pooled, treated with Endo-H to release the oligosaccharides. The oligosaccharides obtained by endo-H hydrolysis were bound to a ConA column previously washed with buffer A (50 mM Tris pH 7.5 containing 500 mM NaCl) and equilibrated with buffer B (5 mM Sodium acetate buffer pH 5.5 containing 2 mM of each CaCl2, MgCl2 and MnCl2). The oligosaccharides were then eluted with buffer B containing 100 mM α-methylmannoside. The oligosaccharides eluted from ConA column were further purified and characterized on a calibrated Biogel P-4 column (1.5×200 cm, (-) 400 mesh). The purified oligosaccharides having GLc3 Man9 GlcNAc structure were used as substrate in these studies. […]
ConA-sepharose was washed first with buffer A, then with buffer B as described above, and resuspended in buffer B (gel: buffer, 1:1) before use. […] A 150 μl aliquot of supernatant was removed and counted.

Compound	IC50 [nM]
OC[C@@H]1[C@@H](O)[C@H](O)[C@@H](O)[C@H]2[C@@H](O)CCCN21 [Compound XXI, [1S-(1α,2β,3α,4β,9α,9aβ)]-octahydro-4-(hydroxy-methyl) -2H-quinolizine-1,2,3,9-tetrol hydrochloride]	150
OC[C@@H]1[C@@H](O)[C@H](O)[C@@H](O)[C@H]2CCCN21 [Compound VII]	300
O=C(O[C@H]1CCCN2[C@H]1[C@H](O)[C@@H](O)[C@H](O)[C@H]2CO)c1ccccc1 [XVII, [1S-(1α,2β,3α,4β,9α,9aβ) ]-octahydro-4-(hydroxymethyl)-2H-quinolizine-1,2,3,9-tetrol 9-benzoate]	29000
